Data on 27 compounds can be found in ChEMBL document CHEMBL5223127, “Fragment-based discovery of novel phenyltriazolyl derivatives as allosteric type-I1/2 ALK inhibitors with promising antitumor effects” (Bioorg Med Chem Lett, 2022).

Assay [1] deals with A549. As to the kind of experiment: cells. Conditions: Homo sapiens.
Description: Antiproliferative activity against human A549 cells by MTT assay
Assay [2] deals with KARPAS-299. As to the kind of experiment: Antiproliferative activity against human KARPAS-299 cells by MTT assay. Background: Tetrazolium dyes change colour on reduction, which living cells bring about.
Assay [3] has as its system NCI-H2228. As to the kind of experiment: Antiproliferative activity against human NCI-H2228 cells by MTT assay.
Assay [4] deals with Hepatocyte growth factor receptor (Homo sapiens, UniProt P08581). Briefly: Inhibition of c-MET (unknown origin).
The target in assay [5] is ALK tyrosine kinase receptor (Homo sapiens, UniProt Q9UM73). Briefly: Inhibition of wild type ALK (unknown origin).
Assay [6] has as its target Epidermal growth factor receptor (Homo sapiens, UniProt P00533). Briefly: Inhibition of EGFR (unknown origin).
For assay [7], the target named is ALK tyrosine kinase receptor (Homo sapiens, UniProt Q9UM73, L1196M). As to the kind of experiment: Inhibition of ALK L1196M mutant (unknown origin).
The subject of assay [8] is NCI-H2228. Briefly: Induction of apoptosis in human NCI-H2228 cells assessed as nuclear contraction incubated for 24 hrs by Hoechst 33342 staining based fluorescence microscopy assay. It counts as functional, cell-based. As to conditions: dose 25-100 nM.
Assay [9] has as its system NCI-H2228. Briefly: Antimigratory activity against human NCI-H2228 cells incubated for 48 hrs by wound healing assay. It counts as functional, cell-based. As to conditions: dose 12.5-50 nM.
The test system of assay [10] is NCI-H2228. Briefly: Inhibition of colony formation in human NCI-H2228 cells at 1 uM incubated for 24 hrs. It counts as functional.
For assay [11], the system named is NCI-H2228. As to the kind of experiment: Induction of apoptosis in human NCI-H2228 cells assessed as nuclear fragmentation incubated for 24 hrs by Hoechst 33342 staining based fluorescence microscopy assay. It counts as functional, cell-based. Conditions: dose 25-100 nM.
The subject of assay [12] is NCI-H2228. As to the kind of experiment: Inhibition of colony formation in human NCI-H2228 cells incubated for 24 hrs. Conditions: dose 0.25-1 µM. It counts as functional, cell-based.

Some results are limits rather than exact numbers.

Chain of ALK tyrosine kinase receptor (Homo sapiens, UniProt Q9UM73) (Q9UM73 whole entry): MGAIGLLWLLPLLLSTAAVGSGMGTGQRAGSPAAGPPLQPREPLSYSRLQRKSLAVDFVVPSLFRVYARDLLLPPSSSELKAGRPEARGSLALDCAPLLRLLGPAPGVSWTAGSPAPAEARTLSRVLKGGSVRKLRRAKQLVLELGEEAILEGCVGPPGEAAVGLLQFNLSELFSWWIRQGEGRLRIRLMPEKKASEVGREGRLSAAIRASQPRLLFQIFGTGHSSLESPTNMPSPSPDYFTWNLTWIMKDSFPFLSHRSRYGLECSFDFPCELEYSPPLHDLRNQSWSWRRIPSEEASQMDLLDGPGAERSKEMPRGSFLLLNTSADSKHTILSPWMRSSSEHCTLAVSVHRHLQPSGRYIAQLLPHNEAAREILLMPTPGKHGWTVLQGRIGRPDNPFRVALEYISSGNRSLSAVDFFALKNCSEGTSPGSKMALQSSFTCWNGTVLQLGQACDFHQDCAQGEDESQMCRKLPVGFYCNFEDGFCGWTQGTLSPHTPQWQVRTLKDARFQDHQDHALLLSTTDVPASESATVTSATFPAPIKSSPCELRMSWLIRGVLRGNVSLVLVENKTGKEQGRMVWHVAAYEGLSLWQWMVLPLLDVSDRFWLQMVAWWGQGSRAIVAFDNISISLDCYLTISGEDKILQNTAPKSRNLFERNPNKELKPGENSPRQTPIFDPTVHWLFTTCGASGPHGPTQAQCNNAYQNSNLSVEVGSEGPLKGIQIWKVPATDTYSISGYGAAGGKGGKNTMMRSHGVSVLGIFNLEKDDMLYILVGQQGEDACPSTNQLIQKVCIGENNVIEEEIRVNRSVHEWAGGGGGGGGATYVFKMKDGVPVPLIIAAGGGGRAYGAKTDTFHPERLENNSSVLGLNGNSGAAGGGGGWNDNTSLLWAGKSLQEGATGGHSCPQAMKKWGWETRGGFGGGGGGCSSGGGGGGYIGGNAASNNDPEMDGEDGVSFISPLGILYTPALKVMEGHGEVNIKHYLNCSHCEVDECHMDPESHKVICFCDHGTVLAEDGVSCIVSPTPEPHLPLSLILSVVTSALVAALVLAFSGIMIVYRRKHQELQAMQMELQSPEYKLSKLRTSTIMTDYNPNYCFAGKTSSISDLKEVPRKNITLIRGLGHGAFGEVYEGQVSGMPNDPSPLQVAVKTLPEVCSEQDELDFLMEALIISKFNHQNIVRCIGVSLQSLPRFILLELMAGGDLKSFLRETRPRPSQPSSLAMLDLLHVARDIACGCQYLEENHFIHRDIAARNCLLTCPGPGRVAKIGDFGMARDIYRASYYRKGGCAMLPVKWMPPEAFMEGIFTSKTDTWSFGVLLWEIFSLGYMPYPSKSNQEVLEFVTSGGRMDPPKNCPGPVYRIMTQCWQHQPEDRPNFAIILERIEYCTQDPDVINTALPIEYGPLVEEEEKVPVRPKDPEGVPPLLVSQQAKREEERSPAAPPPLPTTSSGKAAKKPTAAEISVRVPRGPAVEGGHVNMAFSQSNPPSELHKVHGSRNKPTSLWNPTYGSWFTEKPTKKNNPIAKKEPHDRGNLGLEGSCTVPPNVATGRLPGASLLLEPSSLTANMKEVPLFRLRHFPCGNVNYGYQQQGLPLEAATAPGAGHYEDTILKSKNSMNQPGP
Chain of Epidermal growth factor receptor (P00533 whole entry): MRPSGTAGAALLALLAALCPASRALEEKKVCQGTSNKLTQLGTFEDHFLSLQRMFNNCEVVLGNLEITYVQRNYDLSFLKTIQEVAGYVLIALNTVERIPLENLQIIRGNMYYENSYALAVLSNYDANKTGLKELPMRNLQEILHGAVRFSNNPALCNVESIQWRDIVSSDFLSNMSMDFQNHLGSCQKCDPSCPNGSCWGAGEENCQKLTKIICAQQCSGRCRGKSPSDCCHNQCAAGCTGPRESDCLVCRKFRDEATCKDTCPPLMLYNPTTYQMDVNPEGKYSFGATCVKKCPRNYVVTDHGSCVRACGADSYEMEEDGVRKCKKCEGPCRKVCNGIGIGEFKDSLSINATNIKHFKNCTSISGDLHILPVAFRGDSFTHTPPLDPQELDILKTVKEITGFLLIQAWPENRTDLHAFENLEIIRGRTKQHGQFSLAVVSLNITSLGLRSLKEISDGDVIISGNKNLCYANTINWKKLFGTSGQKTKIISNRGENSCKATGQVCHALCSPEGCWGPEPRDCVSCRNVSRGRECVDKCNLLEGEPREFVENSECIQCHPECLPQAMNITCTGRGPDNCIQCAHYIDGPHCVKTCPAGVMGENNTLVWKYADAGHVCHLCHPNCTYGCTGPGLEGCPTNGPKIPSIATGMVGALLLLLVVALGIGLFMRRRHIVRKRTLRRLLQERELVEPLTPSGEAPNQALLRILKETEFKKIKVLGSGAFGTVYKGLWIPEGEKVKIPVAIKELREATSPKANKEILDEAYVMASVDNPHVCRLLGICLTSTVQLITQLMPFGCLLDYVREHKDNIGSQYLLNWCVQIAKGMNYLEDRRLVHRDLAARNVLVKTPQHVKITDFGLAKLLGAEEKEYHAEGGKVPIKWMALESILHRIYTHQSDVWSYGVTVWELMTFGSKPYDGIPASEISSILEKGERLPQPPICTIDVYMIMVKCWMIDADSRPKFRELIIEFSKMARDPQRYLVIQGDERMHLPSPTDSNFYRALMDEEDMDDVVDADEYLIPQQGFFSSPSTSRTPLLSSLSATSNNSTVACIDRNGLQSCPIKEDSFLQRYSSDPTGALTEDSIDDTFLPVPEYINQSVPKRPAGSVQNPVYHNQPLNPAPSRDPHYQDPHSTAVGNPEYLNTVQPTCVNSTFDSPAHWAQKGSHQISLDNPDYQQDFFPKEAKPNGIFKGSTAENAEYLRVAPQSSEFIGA
Chain of ALK tyrosine kinase receptor (Homo sapiens, UniProt Q9UM73, L1196M) (Q9UM73 19-1620 L1196M limits assumed): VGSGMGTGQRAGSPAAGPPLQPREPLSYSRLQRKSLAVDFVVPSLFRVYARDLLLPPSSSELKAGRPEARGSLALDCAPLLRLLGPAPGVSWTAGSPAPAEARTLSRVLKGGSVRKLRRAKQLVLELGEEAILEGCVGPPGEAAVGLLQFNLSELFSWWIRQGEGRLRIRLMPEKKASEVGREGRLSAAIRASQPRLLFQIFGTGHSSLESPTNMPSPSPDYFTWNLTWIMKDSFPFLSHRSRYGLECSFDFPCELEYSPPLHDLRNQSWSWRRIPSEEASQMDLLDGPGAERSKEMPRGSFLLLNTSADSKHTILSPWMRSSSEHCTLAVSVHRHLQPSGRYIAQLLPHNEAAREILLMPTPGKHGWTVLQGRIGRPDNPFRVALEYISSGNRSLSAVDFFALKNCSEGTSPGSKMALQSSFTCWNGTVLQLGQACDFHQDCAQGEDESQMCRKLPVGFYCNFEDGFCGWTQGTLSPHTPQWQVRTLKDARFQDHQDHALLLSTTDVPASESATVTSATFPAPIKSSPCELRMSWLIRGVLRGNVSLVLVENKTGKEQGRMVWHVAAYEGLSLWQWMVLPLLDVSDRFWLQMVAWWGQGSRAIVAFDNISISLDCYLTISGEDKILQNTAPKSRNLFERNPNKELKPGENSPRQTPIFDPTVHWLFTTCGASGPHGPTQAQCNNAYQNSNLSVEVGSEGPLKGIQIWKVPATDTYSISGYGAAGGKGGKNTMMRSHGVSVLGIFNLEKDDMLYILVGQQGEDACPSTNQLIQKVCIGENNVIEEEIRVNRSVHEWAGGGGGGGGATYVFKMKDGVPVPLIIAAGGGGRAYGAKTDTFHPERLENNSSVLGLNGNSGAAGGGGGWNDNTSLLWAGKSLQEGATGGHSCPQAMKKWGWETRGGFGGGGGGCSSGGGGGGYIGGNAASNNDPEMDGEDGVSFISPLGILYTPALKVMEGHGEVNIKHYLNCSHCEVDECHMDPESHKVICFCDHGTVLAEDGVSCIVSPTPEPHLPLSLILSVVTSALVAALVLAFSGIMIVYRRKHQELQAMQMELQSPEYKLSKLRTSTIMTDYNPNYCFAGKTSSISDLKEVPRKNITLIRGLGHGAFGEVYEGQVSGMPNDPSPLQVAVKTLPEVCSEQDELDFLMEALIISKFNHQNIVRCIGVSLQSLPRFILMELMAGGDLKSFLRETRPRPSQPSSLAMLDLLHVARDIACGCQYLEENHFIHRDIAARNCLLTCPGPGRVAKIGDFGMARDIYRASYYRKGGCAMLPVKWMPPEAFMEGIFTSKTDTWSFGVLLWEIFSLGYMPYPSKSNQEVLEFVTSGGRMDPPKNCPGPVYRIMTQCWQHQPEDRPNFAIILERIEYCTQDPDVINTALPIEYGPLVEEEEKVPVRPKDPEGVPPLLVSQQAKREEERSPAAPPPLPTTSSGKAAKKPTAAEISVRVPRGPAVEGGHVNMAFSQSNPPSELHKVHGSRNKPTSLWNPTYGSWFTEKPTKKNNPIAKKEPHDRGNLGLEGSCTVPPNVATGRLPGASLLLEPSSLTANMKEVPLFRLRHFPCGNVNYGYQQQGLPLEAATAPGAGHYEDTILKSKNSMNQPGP

By IC50 is commonly meant the concentration that inhibits the measured activity by half. Low values mean greater potency in that assay, high ones weaker potency in that assay. Take `CC1CCN(c2ccc(NCc3cn(-c4cccc(NC(=O)c5cc(F)cc(F)c5)c4)nn3)cc2C(=O)N2CCCCC2)CC1`: the IC50 in assay [1] was more than 10000 nM; in [2], 240 nM; in [3], 1030 nM.
Taken in the same sequence, the figures for `CN(C)C(=O)c1cc(NCc2cn(-c3cccc(NC(=O)c4cc(F)cc(F)c4)c3)nn2)ccc1N1CCCCC1` were 4120 nM, 157 nM and 760 nM.
For the compound `CN1CCN(c2ccc(NCc3cn(-c4cccc(NC(=O)c5cc(F)cc(F)c5)c4)nn3)cc2C(=O)N2CCCCC2)CC1`, the IC50 in assay [1] is more than 10000 nM; in assay [2], 91 nM; in assay [3], 387 nM.
The like results for `O=C(Nc1cccc(-n2cc(CNc3ccc(NCCO)c(C(=O)N4CCCCC4)c3)nn2)c1)c1cc(F)cc(F)c1` were, in that order, more than 10000 nM, 602 nM and 2520 nM.
Consider `CN(C)c1ccc(NCc2cn(-c3cccc(NC(=O)c4cc(F)cc(F)c4)c3)nn2)cc1C(=O)N1CCCCC1`, for which the concentration for half-maximal inhibition (IC50) in [1] was more than 10000 nM; in assay [2], 589 nM; in assay [3], 2800 nM.
For the compound `CN(C)C(=O)c1cc(NCc2cn(-c3cccc(NC(=O)c4cc(F)cc(F)c4)c3)nn2)ccc1NCCO`, the concentration for half-maximal inhibition (IC50) in [1] was determined as 7990 nM; in assay [2], 492 nM; in [3], 1790 nM.
For the compound `CN(C)c1ccc(NCc2cn(-c3cccc(NC(=O)c4cc(F)cc(F)c4)c3)nn2)cc1C(=O)N1CCCC1`, the IC50 in [1] is more than 10000 nM; in [2], 511 nM; in [3] it was 2690 nM.
For `O=C(Nc1cccc(-n2cc(CNc3ccc(N4CCC(O)CC4)c(C(=O)N4CCCCC4)c3)nn2)c1)c1cc(F)cc(F)c1`, the IC50 in assay [1] is more than 10000 nM; in assay [4], more than 1000 nM; in assay [2] it was 57 nM; in assay [5], 8.6 nM; in [3] it was 192 nM; in [6], more than 1000 nM. In [7], this compound came in with an IC50 of 17.6 nM.
Turning to `CN1CCN(c2ccc(NCc3cn(-c4cccc(NC(=O)c5cc(F)cc(F)c5)c4)nn3)cc2)CC1`, the concentration for half-maximal inhibition (IC50) in assay [5] was 55 nM. This lies in the double-digit nanomolar range.
Regarding `O=C(Nc1cccc(-n2cc(CNc3ccc(N4CCCCC4)c(C(=O)N4CCOCC4)c3)nn2)c1)c1cc(F)cc(F)c1`, the IC50 was more than 10000 nM in assay [1], 1910 nM in [2] and 7520 nM in assay [3].
Turning to `O=C(Nc1cccc(-n2cc(CNc3ccc(N4CCCCC4)c(C(=O)N4CCCC4)c3)nn2)c1)c1cc(F)cc(F)c1`, the half-inhibitory concentration (IC50) is more than 10000 nM in assay [1], 232 nM in assay [2] and 991 nM in assay [3].
The like results for `CC1CCN(c2ccc(NCc3cn(-c4cccc(NC(=O)c5cc(F)cc(F)c5)c4)nn3)cc2C(=O)N2CCCC2)CC1` were, in that order, more than 10000 nM, 249 nM and 995 nM.
Turning to `O=C(Nc1cccc(-n2cc(CNc3ccc(N4CC(O)C4)c(C(=O)N4CCCCC4)c3)nn2)c1)c1cc(F)cc(F)c1`, the 50% inhibitory concentration (IC50) was more than 10000 nM in [1]; 796 nM in assay [4]; 55 nM in [2]; 5.8 nM in [5]; 193 nM in assay [3]; more than 1000 nM in assay [6]. Half-maximal inhibition in assay [7] (IC50) required 12.9 nM.
On to `O=C(Nc1cccc(-n2cc(CNc3ccc(N4CCCCC4)c(C(=O)N4CCCCC4)c3)nn2)c1)c1cc(F)cc(F)c1`, for which the values for the IC50 in assay [1], in assay [2] and in [3] were more than 10000 nM, 272 nM and 1020 nM, respectively.
With `O=C(Nc1cccc(-n2cc(CNc3ccc(N4CCC(O)CC4)c(C(=O)N4CCOCC4)c3)nn2)c1)c1cc(F)cc(F)c1`, the figures for the IC50 in assay [1], in assay [2] and in assay [3] were more than 10000 nM, 425 nM and 1860 nM, respectively.
Turning to `O=C(Nc1cccc(-n2cc(CNc3ccc(NCCO)c(C(=O)N4CCOCC4)c3)nn2)c1)c1cc(F)cc(F)c1`, the half-maximal inhibitory concentration (IC50) in [1] is more than 10000 nM; in assay [2] it was 1540 nM; in assay [3], 6940 nM.
For `CC1CCN(c2ccc(NCc3cn(-c4cccc(NC(=O)c5cc(F)cc(F)c5)c4)nn3)cc2C(=O)N2CCOCC2)CC1`, the IC50 in [1] is more than 10000 nM; in assay [2] it was 2310 nM; in [3], more than 10000 nM.
Regarding `CN(C)C(=O)c1cc(NCc2cn(-c3cccc(NC(=O)c4cc(F)cc(F)c4)c3)nn2)ccc1N1CCC(O)CC1`, the half-inhibitory concentration (IC50) in assay [1] came out at 2050 nM; in assay [2], 62 nM; in [3], 198 nM.
Taken in the same sequence, the figures for `O=C(Nc1cccc(-n2cc(CNc3ccc(N4CC(O)C4)c(C(=O)N4CCOCC4)c3)nn2)c1)c1cc(F)cc(F)c1` were more than 10000 nM, 594 nM and 1610 nM.
The like results for `CN(C)c1ccc(NCc2cn(-c3cccc(NC(=O)c4cc(F)cc(F)c4)c3)nn2)cc1C(=O)N1CCOCC1` were, in that order, more than 10000 nM, 1760 nM and 7890 nM.
Taken in the same sequence, the figures for `CN1CCN(c2ccc(NCc3cn(-c4cccc(NC(=O)c5cc(F)cc(F)c5)c4)nn3)cc2C(=O)N2CCOCC2)CC1` were more than 10000 nM, 452 nM and 1980 nM.
For `CN(C)C(=O)c1cc(NCc2cn(-c3cccc(NC(=O)c4cc(F)cc(F)c4)c3)nn2)ccc1N(C)C`, the values for the IC50 in assay [1], in assay [2] and in assay [3] were 4930 nM, 356 nM and 1610 nM, respectively.
`CC1CCN(c2ccc(NCc3cn(-c4cccc(NC(=O)c5cc(F)cc(F)c5)c4)nn3)cc2C(=O)N(C)C)CC1`: the IC50 came out at 5790 nM in [1], 191 nM in assay [2] and 881 nM in [3].
One may read the inhibition as the share of the control response that was lost under treatment. With `O=C(Nc1cccc(-n2cc(CNc3ccc(N4CCC(O)CC4)c(C(=O)N4CCCC4)c3)nn2)c1)c1cc(F)cc(F)c1`, the Activity result in assay [8], in assay [9] and in assay [11] was “Dose-Dependent Effect” throughout. In addition, the concentration for half-maximal inhibition (IC50) in assay [1] is more than 10000 nM; in assay [4], more than 1000 nM; in assay [2], 51 nM; in assay [5] it was 3.7 nM; in assay [3] it was 175 nM; in [6], more than 1000 nM. Moreover, it took 6.8 nM to reach half-maximal inhibition in assay [7] (IC50). In [10], testing at 1 µM gave an inhibition of 100%. In addition, the inhibition result in [12] was “Dose-Dependent Effect”.
In assay [5], `CNCc1cn(-c2cccc(NC(=O)c3cc(F)cc(F)c3)c2)nn1` gave a concentration for half-maximal inhibition (IC50) of 270 nM.
Consider `CN1CCN(c2ccc(NCc3cn(-c4cccc(NC(=O)c5cc(F)cc(F)c5)c4)nn3)cc2C(=O)N2CCCC2)CC1`, for which the IC50 in [1] is more than 10000 nM; in assay [2] it was 79 nM; in [3], 362 nM.
With `CN1CCN(c2ccc(NCc3cn(-c4cccc(NC(=O)c5cc(F)cc(F)c5)c4)nn3)cc2C(=O)N(C)C)CC1`, the IC50 is 3750 nM in [1], 55 nM in assay [2] and 169 nM in assay [3].
